From patent publication US20220296521A1, “CARRIER-BASED FORMULATIONS AND RELATED METHODS” (Respira Therapeutics, Inc., priority 2019, published 2022) come the findings set out here.

Structures are written as SMILES.

The data set is described as follows: Tapped density of bulk powder. The class given is physicochemical. How it is done:
“Tapped densities” or ρtapped as used herein were measured in a fashion similar to Method I, as described in USP <616> Bulk Density and Tapped Density of Powders. Tapped densities represent a closer approximation to particle density than poured bulk densities, with measured values that are approximately 20% less than the actual particle density.
Tapped density was determined using a cylindrical cavity of known volume (0.593 cm^3). Powder was filled into this sample holder using a microspatula. The sample cell was then gently tapped on a countertop. As the sample volume decreased, more powder was added to the cell. The tapping and addition of powder steps were repeated until the cavity was filled and the powder bed no longer consolidated with further tapping. The tapped density is defined as the mass of this tapped bed of powder divided by the volume of the cavity.

The compound `CC(C)C(=O)OCC(=O)[C@@]12O[C@H](C3CCCCC3)O[C@@H]1C[C@H]1[C@@H]3CCC4=CC(=O)C=C[C@]4(C)[C@H]3[C@@H](O)C[C@@]12C` [Cic-A, ciclesonide] gave a Tapped density of 0.17 g/mL.
The result for `CC(C)C(=O)OCC(=O)[C@@]12O[C@H](C3CCCCC3)O[C@@H]1C[C@H]1[C@@H]3CCC4=CC(=O)C=C[C@]4(C)[C@H]3[C@@H](O)C[C@@]12C` [Cic-B, ciclesonide] reads 0.16 g/mL.
